Source: PubChem BioAssay AID1963858 (Molecular Pharmacology Branch, DTP, NCI, 2024)

Tested on: HOP-62 multicell spheroids with HUVEC/MSC, viability
Test: Anticancer human tumor HOP-62 cell line growth inhibition [KRAS2];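 note: viability read after a week of compound exposure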;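 for viability, T/C: 100% = DMSO vehicle-treated spheroids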
Conditions: for viability, T/C: stronger effect = lower value
Procedure, shortened: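 KRAS-mutant tumor cells were grown as spheroids with HUVEC endothelial cells and human MSCs as stroma. Targeted agents were tested alone and with KRAS pathway inhibitors. Doses started at or near clinical Cmax, or 10 microM, descending half-log.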

[1] = curve of first compound, second compound 0.1 µM
[2] = curve of first compound, second compound 0.316 µM
[3] = curve of first compound, second compound 1 µM
[4] = curve of first compound, second compound 3.16 µM
[5] = curve of first compound, second compound 10 µM
[6] = second compound 0.1 µM, first compound 0.0316 µM
[7] = second compound 0.1 µM, first compound 0.1 µM
[8] = second compound 0.1 µM, first compound 0.316 µM
[9] = second compound 0.1 µM, first compound 1 µM
[10] = second compound 0.1 µM, first compound 3.16 µM
[11] = second compound 0.1 µM, first compound 10 µM
[12] = second compound 0.316 µM, first compound 0.0316 µM
[13] = second compound 0.316 µM, first compound 0.1 µM
[14] = second compound 0.316 µM, first compound 0.316 µM
[15] = second compound 0.316 µM, first compound 1 µM
[16] = second compound 0.316 µM, first compound 3.16 µM
[17] = second compound 0.316 µM, first compound 10 µM
[18] = second compound 1 µM, first compound 0.0316 µM
[19] = second compound 1 µM, first compound 0.1 µM
[20] = second compound 1 µM, first compound 0.316 µM
[21] = second compound 1 µM, first compound 1 µM
[22] = second compound 1 µM, first compound 3.16 µM
[23] = second compound 1 µM, first compound 10 µM
[24] = second compound 3.16 µM, first compound 0.0316 µM
[25] = second compound 3.16 µM, first compound 0.1 µM
[26] = second compound 3.16 µM, first compound 0.316 µM
[27] = second compound 3.16 µM, first compound 1 µM
[28] = second compound 3.16 µM, first compound 3.16 µM
[29] = second compound 3.16 µM, first compound 10 µM
[30] = second compound 10 µM, first compound 0.0316 µM
[31] = second compound 10 µM, first compound 0.1 µM
[32] = second compound 10 µM, first compound 0.316 µM
[33] = second compound 10 µM, first compound 1 µM
[34] = second compound 10 µM, first compound 3.16 µM
[35] = second compound 10 µM, first compound 10 µM
[36] = second compound 0.1 µM, first compound 0.01 µM
[37] = second compound 0.316 µM, first compound 0.01 µM
[38] = second compound 1 µM, first compound 0.01 µM
[39] = second compound 3.16 µM, first compound 0.01 µM
[40] = second compound 10 µM, first compound 0.01 µM
[41] = second compound 0.1 µM, first compound 0.000316 µM
[42] = second compound 0.1 µM, first compound 0.001 µM
[43] = second compound 0.1 µM, first compound 0.00316 µM
[44] = second compound 0.316 µM, first compound 0.000316 µM
[45] = second compound 0.316 µM, first compound 0.001 µM
[46] = second compound 0.316 µM, first compound 0.00316 µM
[47] = second compound 1 µM, first compound 0.000316 µM
[48] = second compound 1 µM, first compound 0.001 µM
[49] = second compound 1 µM, first compound 0.00316 µM
[50] = second compound 3.16 µM, first compound 0.000316 µM
[51] = second compound 3.16 µM, first compound 0.001 µM
[52] = second compound 3.16 µM, first compound 0.00316 µM
[53] = second compound 10 µM, first compound 0.000316 µM
[54] = second compound 10 µM, first compound 0.001 µM
[55] = second compound 10 µM, first compound 0.00316 µM

Compound | IC50 [1] | IC50 [2] | IC50 [3] | IC50 [4] | IC50 [5] | viability, T/C [6] | viability, T/C [7] | viability, T/C [8] | viability, T/C [9] | viability, T/C [10] | viability, T/C [12] | viability, T/C [13] | viability, T/C [14] | viability, T/C [15] | viability, T/C [18] | viability, T/C [19] | viability, T/C [24] | viability, T/C [25] | viability, T/C [30] | viability, T/C [31] | also measured
CC1OCC2(CCN(c3cnc(Sc4ccnc(N)c4Cl)c(N)n3)CC2)C1N (stereo unspecified) + COc1cc2nc(C)nc(NC(C)c3cc(N)cc(C(F)(F)F)c3)c2cc1OC1CCOC1 | > 10000 nM | > 10000 nM | 1220 nM | 510 nM | 51.9 nM | 89.6% | 88.9% | 79.8% | 66% | 59.5% | 98.4% | 96.1% | 76.2% | 68.9% | 99.4% | 77.9% | 82% | 73.8% | 58% | 40.1% | viability, T/C [11]: 59.5%; viability, T/C [16]: 55.5%; viability, T/C [17]: 52.8%; viability, T/C [20]: 61.2%; viability, T/C [21]: 53.6%; viability, T/C [22]: 41.8%; viability, T/C [23]: 40.3%; viability, T/C [26]: 59.4%; viability, T/C [27]: 38.4%; viability, T/C [28]: 25.7%; viability, T/C [29]: 31.1%; viability, T/C [32]: 26.9%; viability, T/C [33]: 23.7%; viability, T/C [34]: 20.3%; viability, T/C [35]: 18.6%
CC1COCCN1c1cc(-c2ccnn2C)c2ccnc(-c3ccn[nH]3)c2n1 (stereo unspecified) + CC1OCC2(CCN(c3cnc(Sc4ccnc(N)c4Cl)c(N)n3)CC2)C1N | 39.8 nM | 35.8 nM | 21.8 nM | 14.6 nM | < 10 nM | 56.7% | 23% | 12.7% | 11.5% | 13.7% | 53.2% | 23.8% | 14% | 11.9% | 37% | 20.2% | 30.6% | 18.1% | 26.4% | 16.8% | viability, T/C [36]: 94.7%; viability, T/C [37]: 87.3%; viability, T/C [16]: 11.9%; viability, T/C [38]: 76.6%; viability, T/C [20]: 13.4%; viability, T/C [21]: 10.1%; viability, T/C [22]: 8.68%; viability, T/C [39]: 59.4%; viability, T/C [26]: 11.7%; viability, T/C [27]: 9.08%; viability, T/C [28]: 9.24%; viability, T/C [40]: 46.9%; viability, T/C [32]: 13.6%; viability, T/C [33]: 11.2%; viability, T/C [34]: 9.36%
CN(C)C/C=C/C(=O)Nc1cc2c(Nc3ccc(F)c(Cl)c3)ncnc2cc1O[C@H]1CCOC1 + COc1cc2nc(C)nc(NC(C)c3cc(N)cc(C(F)(F)F)c3)c2cc1OC1CCOC1 | > 100 nM | > 100 nM | > 100 nM | > 100 nM | > 100 nM | 105% | 97% |  |  |  | 100% | 97.7% |  |  | 101% | 111% | 59.8% | 64.3% | 59.9% | 70.8% | viability, T/C [41]: 105%; viability, T/C [42]: 109%; viability, T/C [43]: 105%; viability, T/C [36]: 107%; viability, T/C [44]: 115%; viability, T/C [45]: 107%; viability, T/C [46]: 112%; viability, T/C [37]: 96.7%; viability, T/C [47]: 107%; viability, T/C [48]: 102%; viability, T/C [49]: 114%; viability, T/C [38]: 106%; viability, T/C [50]: 72.3%; viability, T/C [51]: 64.1%; viability, T/C [52]: 70%; viability, T/C [39]: 64.2%; viability, T/C [53]: 73.7%; viability, T/C [54]: 51.6%; viability, T/C [55]: 49.6%; viability, T/C [40]: 62.7%
CCNC(=O)CC1N=C(c2ccc(Cl)cc2)c2cc(OC)ccc2-n2c(C)nnc21 (stereo unspecified) + COc1cc2nc(C)nc(NC(C)c3cc(N)cc(C(F)(F)F)c3)c2cc1OC1CCOC1 | 271 nM | 189 nM | 193 nM | 60.8 nM | < 31.6 nM | 90.5% | 75.9% | 44.3% | 29.4% | 21.9% | 90.4% | 65% | 37.8% | 23.7% | 89.2% | 59.8% | 60.1% | 41.7% | 43% | 35.9% | viability, T/C [11]: 18.2%; viability, T/C [16]: 19%; viability, T/C [17]: 18.5%; viability, T/C [20]: 46.9%; viability, T/C [21]: 17.5%; viability, T/C [22]: 16.9%; viability, T/C [23]: 14.4%; viability, T/C [26]: 29.1%; viability, T/C [27]: 17.2%; viability, T/C [28]: 15.5%; viability, T/C [29]: 15.2%; viability, T/C [32]: 29.3%; viability, T/C [33]: 15.8%; viability, T/C [34]: 9.2%; viability, T/C [35]: 4.11%
CCNC(=O)CC1N=C(c2ccc(Cl)cc2)c2cc(OC)ccc2-n2c(C)nnc21 (stereo unspecified) |  |  |  |  |  |  |  |  |  |  |  |  |  |  |  |  |  |  |  |  | viability, T/C (compound 0.0316 µM): 105% [middle of 5 runs]; viability, T/C (compound 0.1 µM): 90% [middle of 5 runs]; viability, T/C (compound 0.316 µM): 62.1% [middle of 5 runs]; viability, T/C (compound 1 µM): 48.2% [middle of 5 runs]; viability, T/C (compound 3.16 µM): 44.7% [middle of 5 runs]; IC50 (curve of compound): 880 nM [middle of 5 runs]
CC(=O)OC12COC1CC(O)C1(C)C(=O)C(O)C3=C(C)C(OC(=O)C(O)C(NC(=O)OC(C)(C)C)c4ccccc4)CC(O)(C(OC(=O)c4ccccc4)C21)C3(C)C (stereo unspecified) + COc1cc2nc(C)nc(NC(C)c3cc(N)cc(C(F)(F)F)c3)c2cc1OC1CCOC1 | < 10 nM | < 10 nM | < 10 nM | < 10 nM | < 10 nM | 32.3% | 36.2% | 32.7% | 37.5% | 53.4% | 35.6% | 34.4% | 27.5% | 40.9% | 35.1% | 34.2% | 27.3% | 27.2% | 31.1% | 51.7% | viability, T/C [36]: 40%; viability, T/C [37]: 38.5%; viability, T/C [16]: 41%; viability, T/C [38]: 29.7%; viability, T/C [20]: 39.5%; viability, T/C [21]: 39.6%; viability, T/C [22]: 38.7%; viability, T/C [39]: 29.7%; viability, T/C [26]: 37%; viability, T/C [27]: 35.9%; viability, T/C [28]: 39.5%; viability, T/C [40]: 34.2%; viability, T/C [32]: 30.7%; viability, T/C [33]: 33.7%; viability, T/C [34]: 40.6%
Cn1ncnc1[C@H]1c2n[nH]c(=O)c3cc(F)cc(c23)N[C@@H]1c1ccc(F)cc1 + C=CC(=O)N1CCN(c2nc(=O)n(-c3c(C)ccnc3C(C)C)c3nc(-c4c(O)cccc4F)c(F)cc23)C(C)C1 | 23.3 nM | 13.5 nM | > 100 nM | > 100 nM | < 0.316 nM | 46.8% | 43.5% |  |  |  | 41.5% | 41.5% |  |  | 61% | 59.4% | 52.9% | 49% | 38% | 33.9% | viability, T/C [41]: 64.7%; viability, T/C [42]: 68.3%; viability, T/C [43]: 51.5%; viability, T/C [36]: 58.3%; viability, T/C [44]: 68.5%; viability, T/C [45]: 69.2%; viability, T/C [46]: 53%; viability, T/C [37]: 56.1%; viability, T/C [47]: 61.9%; viability, T/C [48]: 63.8%; viability, T/C [49]: 63%; viability, T/C [38]: 54.4%; viability, T/C [50]: 66.6%; viability, T/C [51]: 64.3%; viability, T/C [52]: 57%; viability, T/C [39]: 66.9%; viability, T/C [53]: 40.1%; viability, T/C [54]: 46.6%; viability, T/C [55]: 42.9%; viability, T/C [40]: 36.4%
